Experimental data: patent US20070248680A1, “Particles for Inactivating Toxins” (Board of Regents, The University of Texas System, priority 2005, published 2007)
Entries after “also recorded” stand apart in the source; their conditions may differ.

Experiments:
[1] = test system: BSA antibody; assay: Removal of free BSA antibody from serum of BSA-immunized mice (ELISA); assay type: in vivo, Balb/C mice; details: for time to removal of circulating BSA antibodies from serum / effect on free and circulating BSA antibody in serum: tail vein injection; for time to removal of circulating BSA antibodies from serum: FIG. 8B; for effect on free and circulating BSA antibody in serum: NIPA about 5 micrometers, PLLA about 10 micrometers, HA about 250 nanometers
Source text: Another feature of the present invention is that selective tagging of particles of the present invention provides for the removal of select and specific unwanted products or toxins (e.g., unwanted proteins or antibodies) from a host. […] Following injection, mice (at least five mice per group) were sacrificed beginning on day one and continued to day 21. Serum samples from each mouse were recovered via retro-orbital blood collection. Sera was then used to measure the amount of free BSA antibody in the blood by standard enzyme-linked immuno-sorbent assay. FIGS. 8A and 8B are representative examples of the efficacy of specifically tagged particles, in which tagged particles are capable of removing a specific antibody present in serum.

[2] = Persistence of FITC-BSA tagged particles in blood after intravenous introduction (fluorometry); assay type: in vivo; details: Balb/C mice, about 5.0 micrometer particles
Description: One feature of the present invention is that a particle preparation of the present invention is capable of remaining in the host for a length of time, longer than proteins, antibodies, vaccines, or antimicrobials are known to last in a mammalian host. […] Particle were tagged by conjugating with FITC-labeled bovine serum albumin (BSA) protein. […] The amount of BSA present in each sample was assessed by fluorometry. The tagged particles in FIG. 5A were FITC-BSA conjugated to NIPA particles of about 5.0 micrometers (typical diameter). […] In addition, greater than 20% of the BSA-NIPA particles were still present in the blood after two weeks.

[3] = test system: BSA antibodies; assay: Protein adsorption from BSA antisera onto particles, SDS-PAGE of eluted proteins; assay type: binding, Balb/C mice; details: serum of BSA-immunized mice, about 2 hours incubation, about 5 micrometer particles
Description: Another feature is that a tagged particle of the present invention may specifically recognize proteins or other host components of interest and as desired. For example, tagged particles were made to recover or eliminate BSA antibodies from immunized animals. First, Balb/C mice were immunized with bovine serum albumin (BSA) protein for four weeks to trigger BSA antibody production. Two weeks later, mice were sacrificed and their serum was recovered for analyses. […] After incubation for at least about 2 hours, particles were recovered by centrifugation. From a portion of each sample of recovered particles, proteins were eluted. Particles and eluted proteins were analyzed by SDS-PAGE gel electrophoresis to identify proteins that had adsorbed to the particles.
In FIG. 6, lane 1 is diluted mouse sera in PBS at concentration of 1 mg/mL; lanes 2, 5 and 7 depict proteins eluted from NIPA microparticles preincubated with antisera from three different mice; lanes 3, 4 and 6 depict proteins eluted from NIPA-BSA microparticles preincubated with antisera from three different mice. Lanes 2 and 3 are samples from a first mouse, lanes 4 and 5 are samples from a second mouse, and lanes 6 and 7 are samples from a third mouse.
In another example depicting the specific recognition of tagged particles, a similar immunization strategy was used. […] Eluted proteins were analyzed using SDS-PAGE gel electrophoresis. […]

[4] = test system: collagen antibody; assay: Removal of collagen antibodies from circulation of collagen-immunized mice; assay type: in vivo, Balb/C mice; details: week 7, one week after intravenous injection of about 2.0 mg particles/0.5 mL; about 100 nanometer NIPA
Description: In still another example, Balb/C mice were immunized with bovine skin collagen following a standard immunization procedure as is known to one of ordinary skill in the art. At one week following immunization, mice began to produce antibodies against collagen. At the end of week 6 as depicted by the arrow in FIGS. 9A and 9B, mice were injected intravenously (via the tail vein) with particles tagged with and without bovine Type I collagen. Intravenous doses were about 2.0 mg particles/0.5 mL. FIGS. 9A and 9B are representative examples showing the in vivo efficacy of specifically tagged particles and their ability to remove a particular unwanted antibodies from circulation after allowing the unwanted antibody concentration to accumulate for six weeks. […] Histologic analyses of tissue samples collected from some representative animals, including samples from the kidneys, lung, liver, brain, intestines, heart and spleen, were examined for particles. […] These animals were also able to degrade the particle preparation (predominantly in the liver) and eliminate by-products of the preparation via hydrolysis (data not shown).
In FIG. 9B, the conditions as described for FIG. 9A were repeated using particle preparations tagged comprising HPC particles of 1-5 micrometers (typical diameter) conjugated with collagen (HPC-collagen) or untagged particles (HPC) injected into mice.

Substance	time to removal of circulating BSA antibodies from serum [1]	effect on free and circulating BSA antibody in serum [1]	particles still present in the blood after two weeks [2]	other results
HA-BSA: HA nanoparticles (approximately 250 nanometers) tagged with BSA	less than a week	–	–	–
bovine serum albumin [BSA, reference compound]	–	did little to effect; also recorded: none of the untagged particles (HA, NIPA, PLLA) or BSA alone (BSA) when injected into a host were able to significantly effect	–	–
PLLA-BSA: PLLA microparticles (approximately 10 micrometer) tagged with BSA	less than a week	–	–	–
BSA-NIPA: FITC-BSA conjugated to NIPA particles of about 5.0 micrometers typical diameter	less than a week	virtually complete by day 2	greater than 20%	time remained in the circulation ([2]; FIG. 5A): at least 2 weeks; proteins adsorbed to or recognized by particles ([3]; listed as BSA-NIPA microparticles): recognized a number of proteins, especially those representing immunoglobulin G; proteins adsorbed to or recognized by particles ([3]; listed as NIPA-BSA microparticles): recognized more proteins; free BSA antibodies in the serum ([1]; tail vein injection at 6 weeks, about 5 micrometer particles, FIG. 8A): < 5%
BSA-HPC: HPC particles (approximately 5.0 micrometers) conjugated to BSA	–	–	greater than 20%	–
NP-Collagen: NIPA particles (approximately 100 nanometers) conjugated with bovine Type I collagen	–	–	–	reduction of collagen antibody concentration [4]: greater than 75%
